According to patent US9254120B2, “Method for predicting breast cancer patient response to combination therapy” (Biodesix, Inc., priority 2011, dated 2016):
Like-named read-outs stand apart in the source and are kept apart here.

Experiments:
[1] = system: early breast cancer patients; details: 5 years of treatment, versus tamoxifen, hormone receptor-positive women; cited from earlier work
[2] = system: first line metastatic breast cancer patients
Excerpt: The total number of patients in this trial was 1258, 1164 pretreatment serum samples were available for analysis. We obtained valid VeriStrat test results for 1046 of these patients, of which 961 were classified as VeriStrat Good, 80 were VeriStrat Poor, and 5 were VeriStrat Indeterminate (Undefined) (patients for whom 3 replicate spectra produced discrepant results); 117 samples were not evaluable due to hemolysis and we could not assign a VeriStrat label to one patient due to data inconsistencies between available samples.
The classifier assigned a class label to the samples, either “Good” or “Poor” or in a few instances “undefined.” The class labels were assigned using a K-nearest neighbor (KNN) scoring algorithm based on a comparison of the spectra, after preprocessing and calculation of integrated intensity values at selected features in the spectra, with a training set of class-labeled spectra from other cancer patients.
In our retrospective analysis of the EGF30008 study, we obtained serum samples from the patients participating in the study, subjected them to our VeriStrat test, and the samples were assigned class labels of Good or Poor, depending on the outcome of the KNN algorithm in the classifier.
A Cox Proportional Hazard Model analysis was carried out including VeriStrat classification, treatment arm, and an interaction term between the two.

[3] = system: advanced breast cancer patients; details: letrozole versus anastrozole; cited from earlier work

CC(C)(C#N)c1cc(Cn2cncn2)cc(C(C)(C)C#N)c1 [anastrozole]
Reduction in recurrence rates [1]: 26%

CS(=O)(=O)CCNCc1ccc(-c2ccc3ncnc(Nc4ccc(OCc5cccc(F)c5)c(Cl)c4)c3c2)o1 [lapatinib]
Patient outcome on addition of lapatinib to letrozole ([2]; VeriStrat Good group): little or no clinical benefit
Patient outcome on addition of lapatinib to letrozole ([2]; VeriStrat Poor group): significantly improves patient outcome

N#Cc1ccc(C(c2ccc(C#N)cc2)n2cncn2)cc1 [letrozole]
HR for PFS, VeriStrat Good vs VeriStrat Poor within the treatment arm (95% CI) ([2]; HER2+ patients): 0.29
Median PFS ([2]; HER2+ patients, VeriStrat Good): 3.0 months
Median PFS ([2]; HER2+ patients, VeriStrat Poor): 2.3 months
HR for PFS, VeriStrat Good vs VeriStrat Poor within the treatment arm (95% CI) ([2]; HER2+ patients, listed as Let only): 0.29 (0.09-0.98)
Median PFS ([2]; HER2- patients, VeriStrat Good): 13.6 months
Median PFS ([2]; HER2- patients, VeriStrat Poor): 3.1 months
HR for PFS, VeriStrat Good vs VeriStrat Poor within the treatment arm (95% CI) ([2]; HER2- patients, listed as Let only): 0.37 (0.21-0.64)
HR for PFS, VeriStrat Good vs VeriStrat Poor within the treatment arm (95% CI) ([2]; HER2- patients, listed as letrozole+placebo): 0.37
Median PFS ([2]; overall population, VeriStrat Good patients): 10.8 months
Median PFS ([2]; overall population, VeriStrat Poor patients): 2.8 months
HR for PFS, VeriStrat Good vs VeriStrat Poor within the treatment arm (95% CI) ([2]; overall population, listed as Let only): 0.36 (0.23-0.58)
HR for PFS, VeriStrat Good vs VeriStrat Poor within the treatment arm (95% CI) ([2]; overall population, listed as letrozole+placebo): 0.36
Overall response rate (ORR) [3]: significantly superior to anastrozole
